In the experiment the target is mouse NPY Y5 receptor (Mus musculus (Mouse), UniProt O70342). The experiment in a line: Affinity for NPY Y5 receptor (Test Example 1-1), 125I peptide YY binding. The settings on record: inhibition of 125I peptide YY binding to membranes of CHO cells expressing mouse NPY Y5 receptor. An excerpt:
cDNA sequence encoding mouse NPY Y5 receptor (Biochem. Biophys. Acta 1328: 83-89, 1997) was cloned in the expression vector (pME18S, Takebe et al. Mol. Cell. Biol. 8, 466-472). The obtained expression vector was transfected into CHO cells as a host according to the instruction manual using Lipofectamine reagent (Trademark, Gibco BRL Co., Ltd.). The cells that stably express NPY Y5 receptor were obtained.
The membrane samples prepared from the CHO cells expressing NPY Y5 receptor, the compound of the invention and 30,000 cpm ^125I peptide YY (60 pM of final concentration: Amersham) were incubated in the assay buffer (20 mM HEPES-Hanks buffer containing 0.1% bovine serum albumin, pH 7.4) at 25° C. for 2 hours. The membrane samples were then filtered from the mixture through a glassfilter (GF/C) presoaked with 1% polyethyleneimine. After washing with 50 mM Tris-HCl buffer (pH 7.4), radioactivity retained on the filters was determined using gamma counter. Non-specific binding was determined in the presence of 200 nM of peptide YY and the 50% inhibitory concentration (IC50 value) of the test compound for specific peptide YY binding was calculated (Inui, A. et al. Endocrinology 131, 2090-2096 (1992)).
Sequence of mouse NPY Y5 receptor (O70342 whole entry): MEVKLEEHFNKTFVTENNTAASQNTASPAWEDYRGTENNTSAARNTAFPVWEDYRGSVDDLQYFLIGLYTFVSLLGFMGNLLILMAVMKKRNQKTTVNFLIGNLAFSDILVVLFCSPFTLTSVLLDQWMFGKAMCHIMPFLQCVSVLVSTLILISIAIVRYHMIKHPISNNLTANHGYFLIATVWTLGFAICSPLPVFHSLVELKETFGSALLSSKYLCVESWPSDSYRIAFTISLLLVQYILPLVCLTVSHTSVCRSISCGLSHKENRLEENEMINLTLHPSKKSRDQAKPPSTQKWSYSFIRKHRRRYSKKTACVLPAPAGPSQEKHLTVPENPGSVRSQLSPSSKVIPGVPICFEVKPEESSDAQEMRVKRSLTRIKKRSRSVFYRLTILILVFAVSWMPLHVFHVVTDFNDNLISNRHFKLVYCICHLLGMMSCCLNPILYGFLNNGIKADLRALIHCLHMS
For the molecule `O=C(N[C@H]1CC[C@@H](C(=O)Nc2ccn(-c3ccccc3F)n2)CC1)c1cccc(F)n1` [Ia-2], the concentration for half-maximal inhibition (IC50) – broadly, the concentration at which inhibition is half-maximal – is 1.6 nM.
To `O=C(N[C@H]1CC[C@@H](C(=O)Nc2ccn(-c3ccccc3F)n2)CC1)c1cccc(Cl)n1` [Ia-4] belongs 3.8 nM; to `O=C(N[C@H]1CC[C@@H](C(=O)Nc2cccc(-c3ccccc3F)c2)CC1)c1ccccc1` [Ia-14], 4.1 nM.
As for `CC(C)n1c(=O)oc2cc(NC(=O)[C@H]3CC[C@@H](NC(=O)c4ccccc4)CC3)ccc21` [Ia-15], the 50% inhibitory concentration (IC50) was found to be 4.5 nM. The IC50 values of the last two molecules are within 1.5-fold of each other.
The value for `N#Cc1ccccc1C(=O)N[C@H]1CC[C@@H](C(=O)Nc2ccn(-c3ccccc3F)n2)CC1` [Ia-24] was 2.9 nM; that for `O=C(N[C@H]1CC[C@@H](C(=O)Nc2cccc(-c3ccccc3F)c2)CC1)c1ccon1` [Ia-28] was 4.1 nM.
To `O=C(N[C@H]1CC[C@@H](C(=O)Nc2ccc(-c3ccccc3F)cc2)CC1)c1ccon1` [Ia-30] belongs 0.71 nM.
To `CC(C)n1c(=O)oc2cc(NC(=O)[C@H]3CC[C@@H](NC(=O)c4ccon4)CC3)ccc21` [Ia-32] belongs 3.3 nM; to `O=C(N[C@H]1CC[C@@H](C(=O)Nc2ccc(-c3ccccc3)cc2)CC1)c1ccon1` [Ia-35], 0.65 nM.
Molecule `O=C(N[C@H]1CC[C@@H](c2nc(-c3ccc(Cl)c(Cl)c3)c[nH]2)CC1)c1ccon1` [Ia-40] returned an IC50 of 0.26 nM.
The value for `O=C(N[C@H]1CC[C@@H](c2nc(-c3cccc(Cl)c3)c[nH]2)CC1)c1ccon1` [Ia-42] was 3 nM; that for `O=C(N[C@H]1CC[C@@H](c2nc(-c3cccc(C(F)(F)F)c3)c[nH]2)CC1)c1ccon1` [Ia-43] was 1.8 nM.
The value for `O=C(Nc1ccn(-c2ccccc2F)n1)[C@H]1CC[C@@H](Nc2cccc(F)n2)CC1` [Ib-1] was 2.9 nM; that for `CC(C)n1c(=O)oc2cc(NC(=O)[C@H]3CC[C@@H](Nc4cccc(F)n4)CC3)ccc21` [Ib-4] was 1.5 nM.
`C[C@@H]1CN(c2ccc(NC(=O)[C@H]3CC[C@@H](Oc4cc(Cl)ccn4)CC3)cc2)C[C@H](C)O1` [Ic-5] registered an IC50 of 1.5 nM.
Take `N#Cc1ccccc1O[C@H]1CC[C@@H](C(=O)Nc2ccc(OC(F)F)cc2)CC1` [Ic-8]: the IC50 was determined as 2.3 nM.
To `C[C@@H]1CN(c2ccc(NC(=O)[C@H]3CC[C@@H](Oc4cc(C(F)(F)F)ccc4C#N)CC3)cc2)C[C@H](C)O1` [Ic-11] belongs 1.8 nM.
`C[C@@H]1CN(c2ccc(NC(=O)[C@H]3CC[C@@H](Oc4cc(Cl)ccc4C#N)CC3)cc2)C[C@H](C)O1` [Ic-12]: the IC50 was found to be 1.1 nM.
To `CC(C)n1c(=O)oc2cc(NC(=O)[C@H]3CC[C@@H](Oc4cc(Cl)ccc4C#N)CC3)ccc21` [Ic-13] belongs 0.56 nM; to `CC(C)n1c(=O)oc2cc(NC(=O)[C@H]3CC[C@@H](Oc4cc(C(F)(F)F)ccc4C#N)CC3)ccc21` [Ic-14], 0.68 nM; to `CC(C)n1c(=O)oc2cc(NC(=O)[C@H]3CC[C@@H](Oc4cc(C(F)(F)F)ccn4)CC3)ccc21` [Ic-16], 0.41 nM.
`O=C(Nc1ccn(-c2ccccc2F)n1)[C@H]1CC[C@@H](Oc2cc(Cl)ccn2)CC1` [Ic-17] showed an IC50 of 0.69 nM. This IC50 is about 1.7-fold higher than that of the molecule before.
The value for `O=C(Nc1ccn(-c2ccccc2F)n1)[C@H]1CC[C@@H](N2c3ccccc3OS2(=O)=O)CC1` [Id-8] was 0.58 nM.

The record behind these values is patent publication US8653125B2, “Cyclohexane derivative having NPY Y5 receptor antagonism” (Shionogi Co., Ltd., priority 2009, dated 2014).
